Data reported in ChEMBL document CHEMBL3885861, “Open TG-GATES”.

Species: Rattus norvegicus
Test: Open TG-GATES - Regimen: Single
Type: toxicity, organism-based, Sprague-Dawley
Design: regimen Single, gender Male, age 6 weeks
Conditions: in vivo, iv, route intravenous injection; for Ca / Cl / DBIL / GLC / IP / K / LDH / Na / PL / RALB / TBIL / TC / TG / TP / gamma-GTP / A/G / ALP / ALT / AST / BUN / CRE: tissue Plasma; for APTT / Fbg / Hb / Ht / MCH / MCHC / MCV / PT / Plat / RBC / Ret / WBC: tissue Blood; for KIDNEY_L / KIDNEY_R / KIDNEY_TOTAL: tissue Kidney; for LIVER: tissue Liver
[1] = 3 mg/kg, 24 h, dose level Middle
[2] = 10 mg/kg, 24 h, dose level High

In the case of C[C@@H]1C[C@@H]([C@H](O)CC2CC(=O)NC(=O)C2)C(=O)[C@@H](C)C1 [CYCLOHEXIMIDE], the Ca [1] is reported as 9.8 mg/dL, the Cl [1] is reported as 107.6 meq/L and the DBIL [1] is reported as 0.004 mg/dL. It also gave a GLC [1] of 177 mg/dL, an IP [1] of 7.3 mg/dL and a K [1] of 4.4 meq/L. The LDH [1] was 231 IU/L, the Na [1] was 138.8 meq/L and the PL [1] was 74 mg/dL. It also gave an RALB [1] of 2.4 g/dL, a TBIL [1] of 0.028 mg/dL and a TC [1] of 38.4 mg/dL. The TG [1] was 80 mg/dL, the TP [1] was 4.2 g/dL and the gamma-GTP [1] was 1.6 IU/L. The TERMINAL_BW (10 mg/kg, 3 h, dose level High) was 216.7 g, the APTT (10 mg/kg, 3 h, dose level High) was 24.3 s and the Fbg (10 mg/kg, 3 h, dose level High) was 301 mg/dL. For the same compound, the Hb (10 mg/kg, 3 h, dose level High) was 15.2 g/dL, the Ht (10 mg/kg, 3 h, dose level High) was 47.2% and the MCH (10 mg/kg, 3 h, dose level High) was 21 pg. The MCHC (10 mg/kg, 3 h, dose level High) was 32.3%, the MCV (10 mg/kg, 3 h, dose level High) was 65.2 fL and the PT (10 mg/kg, 3 h, dose level High) was 18.5 s. It also gave a Plat (10 mg/kg, 3 h, dose level High) of 133.4 x10_4/uL, an RBC (10 mg/kg, 3 h, dose level High) of 726.4 x10_4/ul and a Ret (10 mg/kg, 3 h, dose level High) of 9.6%. The WBC (10 mg/kg, 3 h, dose level High) was 375 x10_2/uL, the KIDNEY_L (10 mg/kg, 3 h, dose level High) was 1 g and the KIDNEY_R (10 mg/kg, 3 h, dose level High) was 1 g. It also gave a KIDNEY_TOTAL (10 mg/kg, 3 h, dose level High) of 2 g, an LIVER (10 mg/kg, 3 h, dose level High) of 9.2 g and an A/G (10 mg/kg, 3 h, dose level High) of 1.3. For the same compound, the ALP (10 mg/kg, 3 h, dose level High) was 1467 IU/L, the ALT (10 mg/kg, 3 h, dose level High) was 74 IU/L and the AST (10 mg/kg, 3 h, dose level High) was 314.6 IU/L. The BUN (10 mg/kg, 3 h, dose level High) was 41.4 mg/dL, the CRE (10 mg/kg, 3 h, dose level High) was 0.1 mg/dL and the Ca (10 mg/kg, 3 h, dose level High) was 9.8 mg/dL. The Cl (10 mg/kg, 3 h, dose level High) was 109 meq/L, the DBIL (10 mg/kg, 3 h, dose level High) was 0.006 mg/dL and the GLC (10 mg/kg, 3 h, dose level High) was 334.2 mg/dL. The IP (10 mg/kg, 3 h, dose level High) was 13.4 mg/dL, the K (10 mg/kg, 3 h, dose level High) was 5.1 meq/L and the LDH (10 mg/kg, 3 h, dose level High) was 1625.2 IU/L. The Na (10 mg/kg, 3 h, dose level High) was 140 meq/L, the PL (10 mg/kg, 3 h, dose level High) was 82.4 mg/dL and the RALB (10 mg/kg, 3 h, dose level High) was 3 g/dL. It also gave a TBIL (10 mg/kg, 3 h, dose level High) of 0.014 mg/dL, a TC (10 mg/kg, 3 h, dose level High) of 63.8 mg/dL and a TG (10 mg/kg, 3 h, dose level High) of 20 mg/dL. It also gave a TP (10 mg/kg, 3 h, dose level High) of 5.3 g/dL, a gamma-GTP (10 mg/kg, 3 h, dose level High) of 3.2 IU/L and a TERMINAL_BW (10 mg/kg, 6 h, dose level High) of 213.8 g. For the same compound, the APTT (10 mg/kg, 6 h, dose level High) was 31.7 s, the Fbg (10 mg/kg, 6 h, dose level High) was 270.2 mg/dL and the Hb (10 mg/kg, 6 h, dose level High) was 17.7 g/dL. For the same compound, the Ht (10 mg/kg, 6 h, dose level High) was 54.8%, the MCH (10 mg/kg, 6 h, dose level High) was 21.6 pg and the MCHC (10 mg/kg, 6 h, dose level High) was 32.3%. The MCV (10 mg/kg, 6 h, dose level High) was 66.8 fL, the PT (10 mg/kg, 6 h, dose level High) was 29.8 s and the Plat (10 mg/kg, 6 h, dose level High) was 131.6 x10_4/uL. For the same compound, the RBC (10 mg/kg, 6 h, dose level High) was 818.8 x10_4/ul, the Ret (10 mg/kg, 6 h, dose level High) was 8.7% and the WBC (10 mg/kg, 6 h, dose level High) was 396.9 x10_2/uL. It also gave a KIDNEY_L (10 mg/kg, 6 h, dose level High) of 1 g, a KIDNEY_R (10 mg/kg, 6 h, dose level High) of 1 g and a KIDNEY_TOTAL (10 mg/kg, 6 h, dose level High) of 2 g. For the same compound, the LIVER (10 mg/kg, 6 h, dose level High) was 7.9 g, the A/G (10 mg/kg, 6 h, dose level High) was 1.1 and the ALP (10 mg/kg, 6 h, dose level High) was 1518.4 IU/L. The ALT (10 mg/kg, 6 h, dose level High) was 76.2 IU/L, the AST (10 mg/kg, 6 h, dose level High) was 315.8 IU/L and the BUN (10 mg/kg, 6 h, dose level High) was 69.4 mg/dL. It also gave a CRE (10 mg/kg, 6 h, dose level High) of 0.2 mg/dL, a Ca (10 mg/kg, 6 h, dose level High) of 7.2 mg/dL and a Cl (10 mg/kg, 6 h, dose level High) of 108.8 meq/L. It also gave a DBIL (10 mg/kg, 6 h, dose level High) of 0.002 mg/dL, a GLC (10 mg/kg, 6 h, dose level High) of 250.6 mg/dL and an IP (10 mg/kg, 6 h, dose level High) of 16.5 mg/dL. For the same compound, the K (10 mg/kg, 6 h, dose level High) was 6 meq/L, the LDH (10 mg/kg, 6 h, dose level High) was 1124 IU/L and the Na (10 mg/kg, 6 h, dose level High) was 138.8 meq/L. The PL (10 mg/kg, 6 h, dose level High) was 65 mg/dL, the RALB (10 mg/kg, 6 h, dose level High) was 2.8 g/dL and the TBIL (10 mg/kg, 6 h, dose level High) was 0.002 mg/dL. The TC (10 mg/kg, 6 h, dose level High) was 39 mg/dL, the TG (10 mg/kg, 6 h, dose level High) was 20.2 mg/dL and the TP (10 mg/kg, 6 h, dose level High) was 5.3 g/dL. For the same compound, the gamma-GTP (10 mg/kg, 6 h, dose level High) was 3.8 IU/L, the TERMINAL_BW (10 mg/kg, 9 h, dose level High) was 206.3 g and the APTT (10 mg/kg, 9 h, dose level High) was 47.2 s. For the same compound, the Fbg (10 mg/kg, 9 h, dose level High) was 228.4 mg/dL, the Hb (10 mg/kg, 9 h, dose level High) was 18.2 g/dL and the Ht (10 mg/kg, 9 h, dose level High) was 56.4%. It also gave an MCH (10 mg/kg, 9 h, dose level High) of 21.7 pg, an MCHC (10 mg/kg, 9 h, dose level High) of 32.3% and an MCV (10 mg/kg, 9 h, dose level High) of 67.4 fL. For the same compound, the PT (10 mg/kg, 9 h, dose level High) was 40.1 s, the Plat (10 mg/kg, 9 h, dose level High) was 112.8 x10_4/uL and the RBC (10 mg/kg, 9 h, dose level High) was 836.4 x10_4/ul. The Ret (10 mg/kg, 9 h, dose level High) was 8.9%, the WBC (10 mg/kg, 9 h, dose level High) was 386.2 x10_2/uL and the KIDNEY_L (10 mg/kg, 9 h, dose level High) was 1.1 g. For the same compound, the KIDNEY_R (10 mg/kg, 9 h, dose level High) was 1.1 g, the KIDNEY_TOTAL (10 mg/kg, 9 h, dose level High) was 2.1 g and the LIVER (10 mg/kg, 9 h, dose level High) was 7.9 g. For the same compound, the A/G (10 mg/kg, 9 h, dose level High) was 1.4, the ALP (10 mg/kg, 9 h, dose level High) was 1345.4 IU/L and the ALT (10 mg/kg, 9 h, dose level High) was 87.8 IU/L. It also gave an AST (10 mg/kg, 9 h, dose level High) of 291.8 IU/L, a BUN (10 mg/kg, 9 h, dose level High) of 94.4 mg/dL and a CRE (10 mg/kg, 9 h, dose level High) of 0.3 mg/dL. It also gave a Ca (10 mg/kg, 9 h, dose level High) of 6.6 mg/dL, a Cl (10 mg/kg, 9 h, dose level High) of 109 meq/L and a DBIL (10 mg/kg, 9 h, dose level High) of 0.0125 mg/dL. It also gave a GLC (10 mg/kg, 9 h, dose level High) of 215.2 mg/dL, an IP (10 mg/kg, 9 h, dose level High) of 17.4 mg/dL and a K (10 mg/kg, 9 h, dose level High) of 6.6 meq/L. It also gave an LDH (10 mg/kg, 9 h, dose level High) of 1399 IU/L, a Na (10 mg/kg, 9 h, dose level High) of 136 meq/L and a PL (10 mg/kg, 9 h, dose level High) of 69.6 mg/dL. It also gave an RALB (10 mg/kg, 9 h, dose level High) of 2.9 g/dL, a TBIL (10 mg/kg, 9 h, dose level High) of 0.01 mg/dL and a TC (10 mg/kg, 9 h, dose level High) of 34.4 mg/dL. For the same compound, the TG (10 mg/kg, 9 h, dose level High) was 61.4 mg/dL, the TP (10 mg/kg, 9 h, dose level High) was 5.2 g/dL and the gamma-GTP (10 mg/kg, 9 h, dose level High) was 3 IU/L. For the same compound, the TERMINAL_BW [2] was 198.6 g, the APTT [2] was 70.4 s and the Fbg [2] was 149.5 mg/dL. It also gave a Hb [2] of 16.4 g/dL, a Ht [2] of 49.4% and an MCH [2] of 20.9 pg. For the same compound, the MCHC [2] was 33.3%, the MCV [2] was 62.8 fL and the PT [2] was 35.1 s. For the same compound, the Plat [2] was 81.8 x10_4/uL, the RBC [2] was 784.5 x10_4/ul and the Ret [2] was 7.3%. The WBC [2] was 413.2 x10_2/uL, the KIDNEY_L [2] was 1 g and the KIDNEY_R [2] was 1 g. For the same compound, the KIDNEY_TOTAL [2] was 2 g, the LIVER [2] was 8 g and the A/G [2] was 1.3. For the same compound, the ALP [2] was 903.5 IU/L, the ALT [2] was 57.5 IU/L and the AST [2] was 192 IU/L. It also gave a BUN [2] of 106 mg/dL, a CRE [2] of 0.3 mg/dL and a Ca [2] of 7 mg/dL. It also gave a Cl [2] of 112 meq/L, a DBIL [2] of 0.02 mg/dL and a GLC [2] of 134 mg/dL. The IP [2] was 13.4 mg/dL, the K [2] was 5.3 meq/L and the LDH [2] was 1196.5 IU/L. The Na [2] was 141.5 meq/L, the PL [2] was 80 mg/dL and the RALB [2] was 2.5 g/dL. For the same compound, the TBIL [2] was 0.045 mg/dL, the TC [2] was 59 mg/dL and the TG [2] was 66.5 mg/dL. It also gave a TP [2] of 4.5 g/dL and a gamma-GTP [2] of 4 IU/L.
